The test system of data set [1] is children with ASD. In words: Toleration of study medications / adverse effects. The source says:
The participants were given oral vancomycin (a non-absorbable broad spectrum antibiotic that stays in the GI tract) for 2 weeks to reduce levels of pathogenic bacteria, and then 1 day of low-volume colonoscopy prep MoviPrep® (a drink that flushes the bowels, to remove most remaining gut bacteria and vancomycin) to clear the residual vancomycin and feces. The vancomycin was intended to kill off harmful bacteria, the fasting was intended to remove any remaining bacteria and to minimize other luminal fecal material, and the colon cleanse helped remove the vancomycin and cleanse the lower GI Tract.
The rectal dose was administered under the direct supervision of the study physician, and the first oral dose was similarly administered in the presence of the physician. Participants were randomly assigned to either the oral or rectal route of administration. If one administration route was not tolerated, or if the family preferred the other route, then participants had the option of trying the other route. For the participants with initial oral dose, a lower oral maintenance dose (2.5×10^9 CFU) was followed for 8 weeks right after the major oral initial dose. Whereas, the major rectal initial dose was followed by waiting period of 1 week followed by a lower oral maintenance dose (2.5×10^9 CFU) for 7 weeks. The maintenance SHGM dose were self-administered orally every day up to week 10. After treatment was stopped, participants were monitored for another 8 weeks.
Prilosec (omeprazole) was administered daily to reduce stomach acid and thereby increase viability of the MTT, starting on the 12th day of oral vancomycin treatment and continuing until the end of the maintenance dose.

Data set [2] concerns children with ASD. Kind of data set: Complete Blood Count / blood chemistry panel. In kind it is in vivo, human. From the text: The following minor changes were observed. There was a 5% decrease in potassium (p=0.01) from beginning to end of treatment, but all levels remain in the normal range. After the vancomycin (2nd week of study), there was a 8% increase in platelets (p=0.03). Four subjects had elevated levels at start, and only 2 had elevated levels after vancomycin. There was a 26% drop in blood urea nitrogen (BUN) (p=0.002), but all stayed in normal range. There was a 6% increase in albumin to globulin (A/G) ratio (p=0.03), with 1 slightly elevated. There was a 17% increase in aspartate amino transferase (AST) (p=0.01), but all remained in normal range. There was a 24% increase in alanine amino transferase (ALT) (p=0.003), where 1 remained elevated and 2 became slightly elevated. […] Slight changes (1-2%) in red blood cell indices (Mean corpuscular volume (MCV), Mean corpuscular hemoglobin (MCH), Mean corpuscular hemoglobin concentration (MCHC), and Red cell distribution width (RDW)) were observed.

Setting [3] is: human, in vivo, 40 mg/kg per day.

`COc1ccc2[nH]c([S+]([O-])Cc3ncc(C)c(OC)c3C)nc2c1` (stereo not drawn) [Prilosec, omeprazole]: in the data set on children with ASD [1] (in vivo), the “toleration of study medication” value is “generally well-tolerated”.
`CN[C@H](CC(C)C)C(=O)N[C@H]1C(=O)N[C@@H](CC(N)=O)C(=O)N[C@H]2C(=O)N[C@H]3C(=O)N[C@H](C(=O)N[C@H](C(=O)O)c4cc(O)cc(O)c4-c4cc3ccc4O)[C@H](O)c3ccc(c(Cl)c3)Oc3cc2cc(c3O[C@@H]2O[C@H](CO)[C@@H](O)[C@H](O)[C@H]2O[C@H]2C[C@](C)(N)[C@H](O)[C@H](C)O2)Oc2ccc(cc2Cl)[C@H]1O` [vancomycin]: in the data set with children with ASD [1] (setting [3]), the “duration of behavioral reaction in most cases” value was in the range of 1 to 3 days and the “onset of behavioral reaction after start of vancomycin” value was in the range of 1 to 4 days. Further, the “severity of behavioral symptoms” value in the data set on children with ASD [1] (hyperactivity, tantrumming/aggression) is listed as “mild to moderate”. For the same molecule, the “duration of behavioral symptoms in 1 participant” value in the data set with children with ASD [1] (longest case) is listed as 3 weeks. In addition, in the data set on children with ASD [1] (oral vancomycin with natural orange flavor, 18 children), the children developing rash result was “One and one”. The adverse effects overall result in the data set on children with ASD [1] (primarily mild to moderate hyperactivity and tantrums/aggression) is “only temporary adverse effects”. Besides, in the data set on children with ASD [1] (temporary, start of vancomycin), the “cases of increased hyperactivity” value amounted to 7 and the “cases of increased tantrums/aggression” value worked out at 5. In the data set on children with ASD [2] (3rd and 4th tests), the “platelets, BUN, A/G, AST, ALT” value was “returned to similar to baseline”. In addition, in the data set with children with ASD [2] (after the vancomycin), the “increase in alanine amino transferase (ALT)” value is 24% and the “increase in albumin to globulin (A/G) ratio” value was 6%. The same molecule displayed an increase in platelets in the data set on children with ASD [2] (after the vancomycin (2nd week of study)) of 8%. The “increase in aspartate amino transferase (AST)” value in the data set with children with ASD [2] (after the vancomycin, all remained in normal range) was found to be 17%. The “drop in blood urea nitrogen (BUN)” value in the data set with children with ASD [2] (after the vancomycin, all stayed in normal range) came to 26%.

(Values after patent publication US20190328825A1, “METHODS FOR TREATING AUTISM SPECTRUM DISORDER AND ASSOCIATED SYMPTOMS” (Arizona Board of Regents on behalf of Arizona State …, priority 2015, published 2019).)
